Assays:
Assay in all cases: Uptake of Pc 4 in mixtures of BM and cell lines
Format in all cases: cell-based, murine
WEHI-3 cells = test system: WEHI-3 cells
Protocol: (§1) In mixing experiments, aliquots of Ly-5.2 BM and cell lines samples were mixed at different ratios. The combined cell concentration of each sample was 1.5×10^7 cells/mL. […] The cell lines were stained with anti-Ly-5.1^FITC. This treatment allowed clear resolution of the relatively small ABE-8.1/2 and BC3A cells from the bone marrow granulocytes. Immediately prior to the analyses, propidium iodide (PI, 0.5 μg/mL) was added to the samples to allow exclusion of dead cells (PI^+) from the analyses. The samples were analyzed in a FACStar^PLUS (BD) that was equipped with an argon ion laser tuned to 488 nm (200 mW) and a dye laser tuned to 610 nm (300 mW). FITC, PE, PI and Pc 4 fluorescence emissions were collected through 530/30, 575/42, 660/10, 670/10 nm band pass filters, respectively.

L1210 cells = test system: L1210 cells
Protocol: as §1

BC3A cells = conditions: for Pc 4 content in cell line: BM/BC3A
Protocol: as §1

BM progenitors (c-kit^+) = test system: BM progenitors (c-kit^+)
Protocol: as §1

ABE-8.1/2 cells = test system: ABE-8.1/2 cells
Protocol: as §1

P815 cells = test system: P815 cells
Protocol: as §1

[1] = versus 1.5×10^7 cells/mL without BM

SMILES: CN(C)CCC[Si](C)(C)O[Si]1(O)n2c3c4ccccc4c2N=C2N=C(N=c4c5ccccc5c(n41)=NC1=NC(=N3)c3ccccc31)c1ccccc12 (centres unmarked) [Pc 4, hydroxysiloxy-dimethylpropyl-N-dimethyl silicon phthalocyanine]
- Pc 4 content in cell line (WEHI-3 cells; BM/WEHI-3, BM fraction 0.50): 106 Mean fluorescence/cell
- Pc 4 content in cell line (WEHI-3 cells; BM/WEHI-3, BM fraction 0.70): 140 Mean fluorescence/cell
- Pc 4 content in cell line (WEHI-3 cells; BM/WEHI-3, BM fraction 0.80): 164 Mean fluorescence/cell
- Pc 4 content in cell line (WEHI-3 cells; BM/WEHI-3, BM fraction 0.90): 204 Mean fluorescence/cell
- Pc 4 content in cell line (WEHI-3 cells; BM/WEHI-3, BM fraction 0.95): 229 Mean fluorescence/cell
- Pc 4 uptake in mixtures versus cell line alone (WEHI-3 cells; [1]): contained more Pc 4
- Pc 4 content in cell line (L1210 cells; BM/L1210, BM fraction 0.50): 153 Mean fluorescence/cell
- Pc 4 content in cell line (L1210 cells; BM/L1210, BM fraction 0.70): 189 Mean fluorescence/cell
- Pc 4 content in cell line (L1210 cells; BM/L1210, BM fraction 0.80): 210 Mean fluorescence/cell
- Pc 4 content in cell line (L1210 cells; BM/L1210, BM fraction 0.90): 242 Mean fluorescence/cell
- Pc 4 content in cell line (L1210 cells; BM/L1210, BM fraction 0.95): 260 Mean fluorescence/cell
- Pc 4 uptake in mixtures versus cell line alone (L1210 cells; [1]): contained more Pc 4
- Pc 4 content in cell line (BC3A cells; BM fraction 0.50): 104 Mean fluorescence/cell
- Pc 4 content in cell line (BC3A cells; BM fraction 0.70): 26 Mean fluorescence/cell
- Pc 4 content in cell line (BC3A cells; BM fraction 0.80): 138 Mean fluorescence/cell
- Pc 4 content in cell line (BC3A cells; BM fraction 0.90): 153 Mean fluorescence/cell
- Pc 4 content in cell line (BC3A cells; BM fraction 0.95): 166 Mean fluorescence/cell
- Pc 4 uptake in mixtures versus cell line alone (BC3A cells; [1]): contained more Pc 4
- Pc 4 content in c-kit^+ BM (BM progenitors (c-kit^+); BM/ABE-8.1/2, BM fraction 0.50): 48 Mean fluorescence/cell
- Pc 4 content in c-kit^+ BM (BM progenitors (c-kit^+); BM/ABE-8.1/2, BM fraction 0.70): 52 Mean fluorescence/cell
- Pc 4 content in c-kit^+ BM (BM progenitors (c-kit^+); BM/ABE-8.1/2, BM fraction 0.80): 49 Mean fluorescence/cell
- Pc 4 content in c-kit^+ BM (BM progenitors (c-kit^+); BM/ABE-8.1/2, BM fraction 0.90): 55 Mean fluorescence/cell
- Pc 4 content in c-kit^+ BM (BM progenitors (c-kit^+); BM/ABE-8.1/2, BM fraction 0.95): 62 Mean fluorescence/cell
- Pc 4 content in c-kit^+ BM (BM progenitors (c-kit^+); BM/BC3A, BM fraction 0.50): 48 Mean fluorescence/cell
- Pc 4 content in c-kit^+ BM (BM progenitors (c-kit^+); BM/BC3A, BM fraction 0.70): 53 Mean fluorescence/cell
- Pc 4 content in c-kit^+ BM (BM progenitors (c-kit^+); BM/BC3A, BM fraction 0.80): 61 Mean fluorescence/cell
- Pc 4 content in c-kit^+ BM (BM progenitors (c-kit^+); BM/BC3A, BM fraction 0.90): 68 Mean fluorescence/cell
- Pc 4 content in c-kit^+ BM (BM progenitors (c-kit^+); BM/BC3A, BM fraction 0.95): 64 Mean fluorescence/cell
- Pc 4 content in c-kit^+ BM (BM progenitors (c-kit^+); BM/L1210, BM fraction 0.50): 35 Mean fluorescence/cell
- Pc 4 content in c-kit^+ BM (BM progenitors (c-kit^+); BM/L1210, BM fraction 0.70): 43 Mean fluorescence/cell
- Pc 4 content in c-kit^+ BM (BM progenitors (c-kit^+); BM/L1210, BM fraction 0.80): 48 Mean fluorescence/cell
- Pc 4 content in c-kit^+ BM (BM progenitors (c-kit^+); BM/L1210, BM fraction 0.90): 54 Mean fluorescence/cell
- Pc 4 content in c-kit^+ BM (BM progenitors (c-kit^+); BM/L1210, BM fraction 0.95): 60 Mean fluorescence/cell
- Pc 4 content in c-kit^+ BM (BM progenitors (c-kit^+); BM/P815, BM fraction 0.50): 45 Mean fluorescence/cell
- Pc 4 content in c-kit^+ BM (BM progenitors (c-kit^+); BM/P815, BM fraction 0.70): 51 Mean fluorescence/cell
- Pc 4 content in c-kit^+ BM (BM progenitors (c-kit^+); BM/P815, BM fraction 0.80): 64 Mean fluorescence/cell
- Pc 4 content in c-kit^+ BM (BM progenitors (c-kit^+); BM/P815, BM fraction 0.90): 63 Mean fluorescence/cell
- Pc 4 content in c-kit^+ BM (BM progenitors (c-kit^+); BM/P815, BM fraction 0.95): 64 Mean fluorescence/cell
- Pc 4 content in c-kit^+ BM (BM progenitors (c-kit^+); BM/WEHI-3, BM fraction 0.50): 30 Mean fluorescence/cell
- Pc 4 content in c-kit^+ BM (BM progenitors (c-kit^+); BM/WEHI-3, BM fraction 0.70): 38 Mean fluorescence/cell
- Pc 4 content in c-kit^+ BM (BM progenitors (c-kit^+); BM/WEHI-3, BM fraction 0.80): 46 Mean fluorescence/cell
- Pc 4 content in c-kit^+ BM (BM progenitors (c-kit^+); BM/WEHI-3, BM fraction 0.90): 58 Mean fluorescence/cell
- Pc 4 content in c-kit^+ BM (BM progenitors (c-kit^+); BM/WEHI-3, BM fraction 0.95): 65 Mean fluorescence/cell
- Pc 4 uptake of BM progenitor fractions in mixtures versus BM alone (BM progenitors (c-kit^+); all mixtures (p>0.07)): lower, though not significantly
- Pc 4 uptake in mixtures versus cell line alone (ABE-8.1/2 cells; BM fraction<0.9, versus without BM): lower
- Pc 4 content in cell line (ABE-8.1/2 cells; BM/ABE-8.1/2, BM fraction 0.50): 74 Mean fluorescence/cell
- Pc 4 content in cell line (ABE-8.1/2 cells; BM/ABE-8.1/2, BM fraction 0.70): 86 Mean fluorescence/cell
- Pc 4 content in cell line (ABE-8.1/2 cells; BM/ABE-8.1/2, BM fraction 0.80): 91 Mean fluorescence/cell
- Pc 4 content in cell line (ABE-8.1/2 cells; BM/ABE-8.1/2, BM fraction 0.90): 95 Mean fluorescence/cell
- Pc 4 content in cell line (ABE-8.1/2 cells; BM/ABE-8.1/2, BM fraction 0.95): 100 Mean fluorescence/cell
- Pc 4 content in cell line (P815 cells; BM/P815, BM fraction 0.50): 205 Mean fluorescence/cell
- Pc 4 content in cell line (P815 cells; BM/P815, BM fraction 0.70): 241 Mean fluorescence/cell
- Pc 4 content in cell line (P815 cells; BM/P815, BM fraction 0.80): 270 Mean fluorescence/cell
- Pc 4 content in cell line (P815 cells; BM/P815, BM fraction 0.90): 312 Mean fluorescence/cell
- Pc 4 content in cell line (P815 cells; BM/P815, BM fraction 0.95): 335 Mean fluorescence/cell
- Pc 4 uptake in mixtures versus cell line alone (P815 cells; [1]): contained more Pc 4

Reference: US6159733A, “Method for photoinactivating malignant cells” (priority 1996, dated 2000)
